From patent US20190328016A1, “SALT COMPOSITION INCLUDING SARCOSINE” (NESTEC S.A., priority 2016, published 2019) come the findings set out here.

Molecules are shown by their SMILES.

The subject of the experiment is trained panellists. The experiment in a line: Sensory evaluation of tablets by 11 trained panellists. Format: in vivo. As for the experimental part: Bars coloured black denote a significant difference in a particular taste/sensory characteristic. Unshaded bars denote that there is no significant difference in the characteristic. A positive number represents an increased sensory response of the co-crystal compared to the physical mixture.
Tablets for sensory evaluation were prepared using a Romaco Kilian Styl'One single-stroke tablet press. […] The tablets were prepared with three compressions of 300 ms and an interval of 200 ms.
Each of the panellists received a tray with two tablets presented on plastic plates coded with random 3-digit numbers. The tablets had to be crunched with the front teeth and kept in mouth to dissolve slowly (method 1). Alternatively, tablets could be crunched with the front teeth and chewed constantly in the mouth until complete dissolution occurred (method 2).
Afterwards the panellists were asked to rate the taste of the tablets in respect of the following 12 categories: upfront saltiness (1), overall saltiness (2), sweetness (3), sourness (4), umami (5), friable (6), melting (7), overall persistence (8), saltiness persistence (9), sweetness persistence (10), sourness persistence (11), and tingling (12).

On to `N[C@@H](CO)C(=O)O.N[C@@H](CO)C(=O)O.[Cl-].[Na+]` [(L-serine)2.sodium chloride co-crystals, (L-serine)2.sodium chloride], for which, where the note is “25 mg sodium chloride per tablet, during and after consumption”, the “perceived salty taste versus corresponding physical mix” value is “significantly more salty”. Further, where the note is “11 trained panellists, FIG. 2”, the “overall saltiness versus physical mix” value is recorded as “superior”, the “saltiness persistence versus physical mix” value was “superior” and the “upfront saltiness versus physical mix” value is reported as “superior”.
